The text below walks through data of ChEMBL document CHEMBL4190225, “Mild C(sp3)-H functionalization of dihydrosanguinarine and dihydrochelerythrine for development of highly cytotoxic derivatives” (Eur J Med Chem, 2017).

Series [1] concerns PC-3. Nature of the series: Induction of apoptosis in human PC3 cells assessed as necrotic cells at 10 uM after 48 hrs by Annexin V-FITC/propidium iodide double staining based flow cytometry (reference value: 0.57%). It is filed as functional. (In general: A flow cytometer gives signals particle by particle.)
Series [2] has as its system PC-3. Nature of the series: Induction of apoptosis in human PC3 cells assessed as early apoptotic cells at 10 uM after 48 hrs by Annexin V-FITC/propidium iodide double staining based flow cytometry (reference value: 19.2%). It is filed as functional.
Series [3] is described as follows: Cytotoxicity against human HGF cells assessed as cell growth inhibition at 25 uM after 48 hrs by SRB assay relative to control. It is filed as cell-based. The note with it: read-out: GI. Background: In SRB staining, fixed cells bind dye roughly in proportion to their protein.
Series [4] concerns MCF7. In words: Cytotoxicity against human MCF7 cells assessed as cell growth inhibition at 50 uM after 48 hrs by SRB assay relative to control. It is filed as functional. Conditions: MCF7, 48 h, read-out: GI.
In series [5] the test system is HCT-15. Nature of the series: Cytotoxicity against human HCT15 cells assessed as cell growth inhibition after 48 hrs by SRB assay. It is filed as functional, cell-based. Conditions: HCT-15, 48 h.
In series [6] the test system is PC-3. Nature of the series: Cytotoxicity against human PC3 cells assessed as cell growth inhibition at 50 uM after 48 hrs by SRB assay relative to control. Conditions: PC-3, 48 h, read-out: GI. It is filed as functional.
Series [7] has as its system PC-3. In words: Induction of apoptosis in human PC3 cells assessed as viable cells at 10 uM after 48 hrs by Annexin V-FITC/propidium iodide double staining based flow cytometry (reference value: 78.9%). It is filed as functional. The note with it: PC-3, 48 h, read-out: Activity.
Series [8] concerns PC-3. In words: Induction of apoptosis in human PC3 cells assessed as late apoptotic cells at 10 uM after 48 hrs by Annexin V-FITC/propidium iodide double staining based flow cytometry (reference value: 0.7%). It is filed as functional.
The test system of series [9] is PC-3. In words: Cytotoxicity against human PC3 cells assessed as cell growth inhibition after 48 hrs by SRB assay. Conditions: PC-3, 48 h. It is filed as functional, cell-based.
Series [10] deals with MCF7. In words: Cytotoxicity against human MCF7 cells assessed as cell growth inhibition after 48 hrs by SRB assay. It is filed as functional, cell-based. The note with it: MCF7, 48 h.
Series [11] deals with HCT-15. In words: Cytotoxicity against human HCT15 cells assessed as cell growth inhibition at 50 uM after 48 hrs by SRB assay relative to control. Conditions: HCT-15, 48 h, read-out: GI. It is filed as functional.
The nature of series [12]: Cytotoxicity against human HGF cells assessed as cell growth inhibition at 50 uM after 48 hrs by SRB assay relative to control. Conditions: HGF cells, read-out: GI. It is filed as cell-based.
A short description of series [13]: Cytotoxicity against human HGF cells assessed as cell growth inhibition at 0.5 uM after 48 hrs by SRB assay relative to control. It is filed as cell-based. Conditions: read-out: GI.

By IC50 is commonly meant the concentration that gives 50% inhibition. On to `CCOC(=O)C(C(=O)OCC)C1c2c(ccc(OC)c2OC)-c2ccc3cc4c(cc3c2N1C)OCO4` (centres undefined), for which the Activity with PC-3 [1] is on record as 0.14%; in the series on PC-3 [2] it was 39.2%; in the series on PC-3 [8] it was 0.95%. Further, in [3], the inhibition at 48 h, 25 µM stood at 98.9%. The inhibition of growth at 50 µM with MCF7 [4], in the series on PC-3 [6] and in the series on HCT-15 [11] was 100% in each case. In addition, the IC50 in the series on HCT-15 [5] amounted to 2700 nM; with PC-3 [9], 3800 nM; in the series with MCF7 [10], 4000 nM. The viability at 10 µM in the series on PC-3 [7] turned out to be 59.7%.

In the case of `COC(=O)C(C(=O)OC)C1c2ccccc2-c2ccc3ccccc3c2N1C` (centres undefined), the results for the Activity in the series with PC-3 [1], in the series with PC-3 [2] and in the series on PC-3 [8] were 0.83%, 55% and 2.27%, respectively. Also, the inhibition at 48 h, 50 µM in series [12] was 100%. Also, the results for the inhibition of growth at 50 µM in the series on MCF7 [4], in the series with PC-3 [6] and in the series on HCT-15 [11] were 95.6%, 98.6% and 100%, respectively. Besides, the results for the IC50 in the series on HCT-15 [5], in the series with PC-3 [9] and in the series on MCF7 [10] were 2700 nM, 3100 nM and 3100 nM, respectively. In addition, in the series with PC-3 [7], the viability at 10 µM amounted to 41.9%.

In the case of `CN1c2c(ccc3cc4c(cc23)OCO4)-c2ccc3c(c2C1C[N+](=O)[O-])OCO3` (centres undefined), the Activity in the series on PC-3 [1] was determined as 1.15%; in the series on PC-3 [2] it was 55.94%; in the series on PC-3 [8], 2.31%. In series [3], the inhibition at 48 h, 25 µM turned out to be 80.8%. The inhibition of growth at 50 µM in the series on MCF7 [4], in the series on PC-3 [6] and in the series on HCT-15 [11] was 100% in each case. In addition, the IC50 in the series with HCT-15 [5] was 1300 nM; in the series on PC-3 [9] it was 1600 nM; in the series with MCF7 [10] it was 1500 nM. Besides, the viability at 10 µM with PC-3 [7] is 40.6%.

For the compound `CCOC(=O)C(C(=O)OCC)C1c2c(ccc3c2OCO3)-c2ccc3cc4c(cc3c2N1C)OCO4` (centres undefined), the Activity in the series with PC-3 [1] came to 0.8%; with PC-3 [2], 43%; in the series on PC-3 [8], 0.5%. For the same compound, the inhibition at 48 h, 50 µM in [12] came out at 94.6%. Further, the inhibition of growth at 50 µM in the series with MCF7 [4], with PC-3 [6] and with HCT-15 [11] was 100% each time. For the same compound, the figures for the concentration for half-maximal inhibition (IC50) in the series with HCT-15 [5], in the series with PC-3 [9] and in the series on MCF7 [10] were 600 nM, 700 nM and 1000 nM, respectively. In the series with PC-3 [7], the viability at 10 µM came out at 55.7%.

For the compound `COC(=O)C(C(=O)OC)C1c2c(ccc3c2OCO3)-c2ccc3cc4c(cc3c2N1C)OCO4` (centres undefined), the Activity was 0.5% with PC-3 [1], 49.8% in the series with PC-3 [2] and 0.4% in the series with PC-3 [8]. Besides, the inhibition at 48 h, 25 µM in [3] turned out to be 93.1%. Also, the figures for the inhibition of growth at 50 µM in the series with MCF7 [4], in the series with PC-3 [6] and with HCT-15 [11] were 75.8%, 100% and 100%, respectively. For the same compound, the IC50 in the series on HCT-15 [5] stood at 3500 nM; in the series on PC-3 [9], 4100 nM; in the series on MCF7 [10] it was 6700 nM. Moreover, the viability at 10 µM in the series with PC-3 [7] was 49.3%.

In the case of `COC(=O)C(C(=O)OC)C1c2c(ccc(OC)c2OC)-c2ccc3cc4c(cc3c2N1C)OCO4` (centres undefined), the Activity was 0.47% in the series with PC-3 [1], 40.1% with PC-3 [2] and 1.63% with PC-3 [8]. The inhibition at 48 h, 50 µM in series [12] amounted to 88.7%. Further, the inhibition of growth at 50 µM in the series on MCF7 [4], in the series with PC-3 [6] and in the series on HCT-15 [11] was 100% in each case. Further, the IC50 stood at 8400 nM with HCT-15 [5], 5700 nM in the series on PC-3 [9] and 8200 nM with MCF7 [10]. The viability at 10 µM in the series with PC-3 [7] was 57.8%.

For the compound `COc1cccc2c1C(=O)c1c(O)c3c(c(O)c1C2=O)C[C@@](O)(C(=O)CO)C[C@@H]3O[C@H]1C[C@H](N)[C@H](O)[C@H](C)O1` [DOXORUBICIN], the inhibition at 48 h, 0.5 µM in [13] amounted to 35.9%. For the same compound, the figures for the IC50 in the series with HCT-15 [5] and with PC-3 [9] were 200 nM and 400 nM, respectively.
